In patent publication US20030229087A1 (priority 2002, published 2003):

Assays:
Assay type in all cases: in vivo
[1] = system: Erysiphe graminis f.sp. tritici; assay: Erysiphe test (wheat)/protective; details: protective, application rate 6.25 g/ha, evaluation 7 days after inoculation
Procedure: Erysiphe Test (Wheat)/Protective
(§1) To produce a suitable preparation of active compound, 1 part by weight of active compound or active compound combination is mixed with the stated amounts of solvent and emulsifier, and the concentrate is diluted with water to the desired concentration.
(§2) To test for protective activity, young plants are sprayed with the preparation of active compound at the stated application rate.
After the spray coating has dried on, the plants are dusted with spores of Erysiphe graminis f.sp. tritici.
(§3) The plants are placed in a greenhouse at a temperature of approximately 20° C. and a relative atmospheric humidity of approximately 80% to promote the development of mildew postules.
(§4) Evaluation is carried out 7 days after the inoculation. 0% means an efficacy which corresponds to that of the control, whereas an efficacy of 100% means that no infection is observed.

[2] = system: Pyrenophora teres; assay: Pyrenophora teres test (barley)/protective; details: protective, application rate 25 g/ha, evaluation 7 days after inoculation
Procedure: Pyrenophora teres Test (Barley)/Protective
as §1
(§5) To test for protective activity, young plants are sprayed with the preparation of active compound at the stated application rate. After the spray coating has dried on, the plants are sprayed with a conidia suspension of Pyrenophora teres. The plants remain in an incubation cabin at 20° C. and 100% relative atmospheric humidity for 48 hours.
The plants are then placed in a greenhouse at a temperature of approximately 20° C. and a relative atmospheric humidity of approximately 80%.
as §4

[3] = system: Erysiphe graminis f.sp. hordei; assay: Erysiphe test (barley)/protective; details: Blumeria graminis, 168 h, protective, application rate 12.5 g/ha, evaluation 7 days after inoculation, read-out: Efficacy in %
Procedure: Erysiphe Test (Barley)/Protective
as §1, §2
After the spray coating has dried on, the plants are dusted with spores of Erysiphe graminis f.sp. hordei.
as §3, §4

[4] = system: Leptosphaeria nodorum; assay: Leptosphaeria nodorum test (wheat)/protective; details: protective, application rate 25 g/ha, evaluation 10 days after inoculation
Procedure: Leptosphaeria nodorum Test (Wheat)/Protective
To produce a suitable preparation of active compound, 1 part by weight of active compound or active compound combination is mixed with the stated amounts of solvents and emulsifier, and the concentrate is diluted with water to the desired concentration.
as §5, with “spore” for “conidia”, “Leptosphaeria nodorum.” for “Pyrenophora teres.”
The plants are placed in a greenhouse at a temperature of approximately 15° C. and a relative atmospheric humidity of 80%.
Evaluation is carried out 10 days after the inoculation. 0% means an efficacy which corresponds to that of the control, whereas an efficacy of 100% means that no infection is observed.

[5] = system: Phytophthora infestans; assay: whole plant or invertebrate; details: Phytophthora infestans, in Solanum lycopersicum, 72 h, read-out: % Efficacy
[6] = system: Sphaerotheca fuliginea; assay: whole plant or invertebrate; details: Podosphaera fuliginea, in Cucumis sativus, 240 h, read-out: % Efficacy

Structure (SMILES)	Efficacy in % [1] [%]	Efficacy in % [2] [%]	pest or weed control at 12.5 g/ha [3] [%]	Efficacy in % [4] [%]	pest or weed control at 0.5 g/ha [5] [%]	pest or weed control at 1 g/ha [5] [%]	pest or weed control at 2 g/ha [5] [%]	pest or weed control at 0.5 g/ha [6] [%]	pest or weed control at 1 g/ha [6] [%]
Fc1ccc(C2(Cn3cncn3)OC2c2ccccc2Cl)cc1 (centres unmarked) [epoxiconazole (XI) (10), epoxiconazole]	70	60	–	–	–	–	–	–	–
CNC(=O)/C(=N/OC)c1ccccc1Oc1ncnc(Oc2cccc(Cl)c2C)c1F [Compound of the formula (I), (2E/Z)-2-(2-{[6-(3-chloro-2-methylphenoxy)-5-fluoro-4-pyrimidinyl]oxy}phenyl)-2-(methoxyimino)-N-methylethanamide]	0	60	80	60	32	60	72	30	69
